Laboratory results taken from ChEMBL document CHEMBL3217738, “Preparation of blood-brain barrier-permeable paclitaxel-carrier conjugate and its chemotherapeutic activity in the mouse glioblastoma model” (Medchemcomm, 2011).
Activity calls are given as the source filed them. No cut-off for these calls is given here.

Experiments:
[1] = tested on: HeLa; experiment: Cytotoxicity against human HeLa cells assessed as cell viability at 100 uM after 48 hrs by MTT assay relative to control; assay type: functional; details: read-out: Activity
[2] = Cytotoxicity against African green monkey COS7 cells assessed as cell viability at 1 uM after 48 hrs by MTT assay relative to control; assay type: cell-based, COS-7; details: chlorocebus aethiops, read-out: Activity
[3] = Cytotoxicity against African green monkey COS7 cells assessed as cell viability at 0.1 uM after 48 hrs by MTT assay relative to control; assay type: cell-based, COS-7; details: chlorocebus aethiops, read-out: Activity
[4] = tested on: U-87MG ATCC; experiment: Antitumor activity against human U87MG cells xenografted in mouse assessed as decrease in microvessel density in tumor bed by measuring CD31-positive cells at […] 7.5 mg/kg, po administered twice per week for 2 weeks measured after 4 weeks by immunohistochemical analysis relative to control; assay type: functional, organism-based
[5] = Antitumor activity against human U87MG cells xenografted in Balb/c nude mouse orthotopic model assessed as reduction in tumor volume at 3.75 mg/kg, po administered twice per week for 2 weeks measured after 4 weeks (reference value: 25 +/- 2.6 mm3); assay type: functional, U-87MG ATCC
[6] = tested on: U-87MG ATCC; experiment: Antitumor activity against human U87MG cells xenografted in mouse assessed as tumor growth inhibition by measuring PCNA-positive cells at […] 7.5 mg/kg, po administered twice per week for 2 weeks measured after 4 weeks by immunohistochemical analysis relative to control; assay type: functional, organism-based
[7] = Cytotoxicity against African green monkey COS7 cells assessed as cell viability at 100 uM after 48 hrs by MTT assay relative to control; assay type: cell-based, COS-7; details: chlorocebus aethiops, read-out: Activity
[8] = Cytotoxicity against African green monkey COS7 cells assessed as cell viability at 10 uM after 48 hrs by MTT assay relative to control; assay type: cell-based, COS-7; details: chlorocebus aethiops, read-out: Activity
[9] = tested on: RAW264.7; experiment: Cytotoxicity against mouse RAW264.7 cells assessed as cell viability at 1 uM after 48 hrs by MTT assay relative to control; assay type: functional; details: RAW264.7, 48 h, read-out: Activity
[10] = tested on: HeLa; experiment: Cytotoxicity against human HeLa cells assessed as cell viability at 10 uM after 48 hrs by MTT assay relative to control; assay type: functional; details: read-out: Activity
[11] = Antitumor activity against human U87MG cells xenografted in Balb/c nude mouse assessed as reduction in tumor volume at 7.5 mg/kg, po administered twice per week for 2 weeks measured after 4 weeks (reference value: 25 +/- 2.6 mm3); assay type: functional, U-87MG ATCC
[12] = tested on: RAW264.7; experiment: Cytotoxicity against mouse RAW264.7 cells assessed as cell viability at 100 uM after 48 hrs by MTT assay relative to control; assay type: functional; details: RAW264.7, 48 h, read-out: Activity
[13] = tested on: HeLa; experiment: Cytotoxicity against human HeLa cells assessed as cell viability at 0.1 uM after 48 hrs by MTT assay relative to control; assay type: functional; details: read-out: Activity
[14] = tested on: U-87 MG; experiment: Induction of apoptosis in human U87MG cells xenografted in mouse at 3.75 to 7.5 mg/kg, po administered twice per week for 2 weeks measured after 4 weeks by TUNEL-staining based immunohistochemical analysis relative to control; assay type: functional, organism-based; details: U-87MG ATCC
[15] = tested on: HeLa; experiment: Cytotoxicity against human HeLa cells assessed as cell viability at 1 uM after 48 hrs by MTT assay relative to control; assay type: functional; details: read-out: Activity
[16] = tested on: RAW264.7; experiment: Cytotoxicity against mouse RAW264.7 cells assessed as cell viability at 0.1 uM after 48 hrs by MTT assay relative to control; assay type: functional; details: RAW264.7, 48 h, read-out: Activity
[17] = tested on: RAW264.7; experiment: Cytotoxicity against mouse RAW264.7 cells assessed as cell viability at 10 uM after 48 hrs by MTT assay relative to control; assay type: functional; details: RAW264.7, 48 h, read-out: Activity
[18] = tested on: Kidney; experiment: Drug uptake in kidney of C57BL/6 mouse at 115.6 mg/kg, ip after 20 mins by fluorescence microscopy; assay type: ADME, organism-based; parameters: dose 115.6 mg/kg, route intraperitoneal; details: in vivo
[19] = tested on: Heart; experiment: Drug uptake in heart muscle of C57BL/6 mouse at 115.6 mg/kg, ip after 20 mins by fluorescence microscopy; assay type: ADME, organism-based, Muscle tissue; parameters: dose 115.6 mg/kg, route intraperitoneal; details: in vivo
[20] = tested on: Spleen; experiment: Drug uptake in spleen of C57BL/6 mouse at 115.6 mg/kg, ip after 20 mins by fluorescence microscopy; assay type: ADME, organism-based; parameters: dose 115.6 mg/kg, route intraperitoneal; details: in vivo
[21] = tested on: Liver; experiment: Drug uptake in liver of C57BL/6 mouse at 115.6 mg/kg, ip after 20 mins by fluorescence microscopy; assay type: ADME, organism-based; parameters: dose 115.6 mg/kg, route intraperitoneal; details: in vivo
[22] = tested on: Lung; experiment: Drug uptake in lung of C57BL/6 mouse at 115.6 mg/kg, ip after 20 mins by fluorescence microscopy; assay type: ADME, organism-based; parameters: dose 115.6 mg/kg, route intraperitoneal; details: in vivo
[23] = tested on: Brain; experiment: Drug uptake in brain of C57BL/6 mouse at 115.6 mg/kg, ip after 20 mins by fluorescence microscopy; assay type: ADME, organism-based; parameters: dose 115.6 mg/kg, route intraperitoneal; details: in vivo

| SMILES | viability at 100 µM [1] | viability at 48 h, 1 µM [2] | viability at 48 h, 0.1 µM [3] | viability at 48 h, 100 µM [7] | viability at 48 h, 10 µM [8] | viability at 1 µM [9] | viability at 10 µM [10] | Activity [11] | viability at 100 µM [12] | viability at 0.1 µM [13] | viability at 1 µM [15] | viability at 0.1 µM [16] | viability at 10 µM [17] | other results |
| --- | --- | --- | --- | --- | --- | --- | --- | --- | --- | --- | --- | --- | --- | --- |
| CC(=O)O[C@H]1C(=O)[C@@]2(C)[C@H]([C@H](OC(=O)c3ccccc3)[C@]3(O)C[C@H](OC(=O)[C@H](OC(=O)CCC(=O)OC[C@@H](OC(=O)CCCCCN(CCCNC(=N)N)CCCNC(=N)N)[C@@H](OC(=O)CCCCCN(CCCNC(=N)N)CCCNC(=N)N)[C@H](OC(=O)CCCCCN(CCCNC(=N)N)CCCNC(=N)N)[C@H](CO)OC(=O)CCCCCN(CCCNC(=N)N)CCCNC(=N)N)[C@@H](NC(=O)c4ccccc4)c4ccccc4)C(C)=C1C3(C)C)[C@]1(OC(C)=O)CO[C@@H]1C[C@@H]2O.Cl | 3.8% | 92.4% | 96.2% | 20.6% | 94.5% | 111% | 83.1% | 4.7 mm3 | 2.6% | 87.4% | 78% | 117% | 53.4% | Activity [4]: Active; Activity [5]: 6.1 mm3; TGI [6]: Active; Activity [14]: Active |
| CC(=O)O[C@H]1C(=O)[C@@]2(C)[C@H]([C@H](OC(=O)c3ccccc3)[C@]3(O)C[C@H](OC(=O)[C@H](OC(=O)CCC(=O)OC[C@H](OC(=O)CCCCCN(CCCNC(=N)N)CCCNC(=N)N)[C@@H](OC(=O)CCCCCN(CCCNC(=N)N)CCCNC(=N)N)[C@H](OC(=O)CCCCCN(CCCNC(=N)N)CCCNC(=N)N)[C@@H](COC(=O)CCCCCNC(=S)Nc4ccc(-c5c6ccc(=O)cc-6oc6cc(O)ccc56)c(C(=O)O)c4)OC(=O)CCCCCN(CCCNC(=N)N)CCCNC(=N)N)[C@@H](NC(=O)c4ccccc4)c4ccccc4)C(C)=C1C3(C)C)[C@]1(OC(C)=O)CO[C@@H]1C[C@@H]2O.Cl | – | – | – | – | – | – | – | – | – | – | – | – | – | Drug uptake [18]: Active; Drug uptake [19]: Active; Drug uptake [20]: Active; Drug uptake [21]: Active; Drug uptake [22]: Active; Drug uptake [23]: Active |
| CC(=O)O[C@H]1C(=O)[C@@]2(C)[C@H]([C@H](OC(=O)c3ccccc3)[C@]3(O)C[C@H](OC(=O)[C@H](O)[C@@H](NC(=O)c4ccccc4)c4ccccc4)C(C)=C1C3(C)C)[C@]1(OC(C)=O)CO[C@@H]1C[C@@H]2O [PACLITAXEL] | 56.5% | 66.5% | 65.4% | 41.5% | 71.9% | 39.2% | 96.1% | 19.4 mm3 | 13.3% | 76.3% | 86.3% | 39.3% | 49.9% | – |
